# Test system: subjects with moderate-to-severe plaque psoriasis
# Test: PASI response, Example 2 long-term extension to Week 52
# Assay type: in vivo, human
# Settings: for Change from Baseline in PASI Total Score, LSMean: MMRM model
# From the text: Described below is a multicenter, long-term extension (LTE), double-blind, dose-ranging, parallel group interventional study in participants from Example 1 to evaluate the long-term efficacy and safety of the hydrochloride salt of the compound of Formula (I) for the treatment of moderate-to-severe plaque psoriasis. Patients from Example 1 continued to receive the same dose of the compound of Formula (I) for an additional 36-week treatment period with a 4-week safety follow up period after the last administration of the compound of Formula (I). Patients randomized to placebo in Example 1 received the compound of Formula (I) at a dose of 100 mg QD starting at Week 16 of Example 1 (FIG. 21).
# The primary efficacy endpoint is the proportion of participants achieving a PASI 75 response at Week 52, defined as at least a […] reduction from baseline PASI of Example 1. For primary analysis, composite strategy (non-responder imputation) was applied to address intercurrent event #1 (Discontinuation of study intervention due to lack of efficacy or due to an AE of worsening of psoriasis) and […] (initiation of a protocol-prohibited medication or therapy that could improve psoriasis); treatment policy strategy (observed data) was applied to intercurrent event #3 (Discontinuation of study intervention due to other reasons). Participants with missing data after application of ICEs are considered as non-responders.
# Since there was no control arm (after week 16), in this primary analysis, only the proportion of participants who achieved a PASI75 response and its […] confidence interval at Week 52 were summarized for each intervention group.
# [1] = Placebo → 100 mg QD, crossed over at or after Week 16, Week 20
# [2] = Placebo → 100 mg QD, crossed over at or after Week 16, Week 24
# [3] = Placebo → 100 mg QD, crossed over at or after Week 16, Week 28
# [4] = Placebo → 100 mg QD, crossed over at or after Week 16, Week 32
# [5] = Placebo → 100 mg QD, crossed over at or after Week 16, Week 40
# [6] = Placebo → 100 mg QD, crossed over at or after Week 16, Week 52
# [7] = Placebo → 100 mg QD, crossed over at or after Week 16, Week 52, non-responder imputation
smiles,measurement,setting,value
"CC(=O)NCCCC[C@@H]1NC(=O)[C@H](Cc2c[nH]c3c(C)cccc23)NC(=O)[C@H]([C@@H](C)O)NC(=O)[C@H](CC(N)=O)NC(=O)[C@@H](NC(C)=O)C(C)(C)SSC(C)(C)[C@@H](C(=O)N[C@@H](Cc2ccc(OCCN)cc2)C(=O)N[C@@H](Cc2ccc3ccccc3c2)C(=O)NC2(C(=O)N[C@@H](CCC(=O)O)C(=O)N[C@@H](CC(N)=O)C(=O)N[C@@H](Cc3cccnc3)C(=O)N(C)CC(N)=O)CCOCC2)NC1=O [IL-23 receptor antagonist peptide, Ac-[Pen]*-N-T-[W(7-Me)]-[Lys(Ac)]-[Pen]*-Phe[4-(2-aminoethoxy)]-[2-Nal]-[THP]-E-N-[3-Pal]-Sarc-NH2 (*[Pen]-[Pen]* formdisulfidebond)]",Subjects achieving PASI 75,"100 mg QD, Week 52",28 (65.1%)
same,"Change from Baseline in PASI Total Score, LSMean","100 mg QD, Week 52",−15.5
same,Subjects achieving ≥75% Improvement at Week 52 (PASI 75 Response),"100 mg QD, Week 52, non-responder imputation",28 (65.1%)
same,"Change from Baseline in PASI Total Score, Mean",[1],−10.44
same,"Change from Baseline in PASI Total Score, Median",[1],−10.35
same,"Change from Baseline in PASI Total Score, LSMean",[1],−10.3
same,"Change from Baseline in PASI Total Score, Mean",[2],−13.26
same,"Change from Baseline in PASI Total Score, Median",[2],−14.10
same,"Change from Baseline in PASI Total Score, LSMean",[2],−13.2
same,"Change from Baseline in PASI Total Score, Mean",[3],−13.77
same,"Change from Baseline in PASI Total Score, Median",[3],−14.10
same,"Change from Baseline in PASI Total Score, LSMean",[3],−13.7
same,"Change from Baseline in PASI Total Score, Mean",[4],−14.14
same,"Change from Baseline in PASI Total Score, Median",[4],−14.75
same,"Change from Baseline in PASI Total Score, LSMean",[4],−13.7
same,"Change from Baseline in PASI Total Score, Mean",[5],−13.73
same,"Change from Baseline in PASI Total Score, Median",[5],−14.85
same,"Change from Baseline in PASI Total Score, LSMean",[5],−13.6
same,"Change from Baseline in PASI Total Score, Mean",[6],−14.15
same,"Change from Baseline in PASI Total Score, Median",[6],−15.30
same,"Change from Baseline in PASI Total Score, LSMean",[6],−14.0
same,Subjects achieving 100% Improvement at Week 52 (PASI),[7],12 (34.3%)
same,Subjects achieving ≥75% Improvement at Week 52 (PASI 75 Response),[7],23 (65.7%)
same,Subjects achieving ≥90% Improvement at Week 52 (PASI),[7],20 (57.1%)
same,"PASI ≥75% Improvement, subjects (%)","Week 1, 50 mg QD, N=43",(4.7%)
same,"PASI ≥75% Improvement, subjects (%)","Week 1, 100 mg BID, N=42",(2.4%)
same,"PASI ≥90% Improvement, subjects (%)","Week 1, 100 mg BID, N=42",(2.4%)
same,"PASI ≥75% Improvement, subjects (%)","Week 1, 100 mg QD, N=43",(2.3%)
same,"PASI ≥75% Improvement, subjects (%)","Week 2, 50 mg QD, N=43",(4.7%)
same,"PASI ≥75% Improvement, subjects (%)","Week 2, 100 mg BID, N=42",(4.8%)
same,"PASI ≥90% Improvement, subjects (%)","Week 2, 100 mg BID, N=42",(2.4%)
same,"PASI ≥75% Improvement, subjects (%)","Week 2, 100 mg QD, N=43",(2.3%)
same,"PASI ≥75% Improvement, subjects (%)","Week 4, 25 mg BID, N=41",(4.9%)
same,"PASI ≥75% Improvement, subjects (%)","Week 4, 25 mg QD, N=43",(9.3%)
same,"PASI ≥90% Improvement, subjects (%)","Week 4, 25 mg QD, N=43",(2.3%)
same,"PASI ≥75% Improvement, subjects (%)","Week 4, 50 mg QD, N=43",(16.3%)
same,"PASI ≥75% Improvement, subjects (%)","Week 4, 100 mg BID, N=42",(23.8%)
same,"PASI ≥90% Improvement, subjects (%)","Week 4, 100 mg BID, N=42",(9.5%)
same,"PASI ≥75% Improvement, subjects (%)","Week 4, 100 mg QD, N=43",(16.3%)
same,"PASI ≥90% Improvement, subjects (%)","Week 4, 100 mg QD, N=43",(4.7%)
same,"PASI 100% Improvement, subjects (%)","Week 8, 25 mg BID, N=41",(2.4%)
same,"PASI ≥75% Improvement, subjects (%)","Week 8, 25 mg BID, N=41",(19.5%)
same,"PASI ≥90% Improvement, subjects (%)","Week 8, 25 mg BID, N=41",(7.3%)
same,"PASI 100% Improvement, subjects (%)","Week 8, 25 mg QD, N=43",(2.3%)
same,"PASI ≥75% Improvement, subjects (%)","Week 8, 25 mg QD, N=43",(23.3%)
same,"PASI ≥90% Improvement, subjects (%)","Week 8, 25 mg QD, N=43",(14.0%)
same,"PASI 100% Improvement, subjects (%)","Week 8, 50 mg QD, N=43",(2.3%)
same,"PASI ≥75% Improvement, subjects (%)","Week 8, 50 mg QD, N=43",(39.5%)
same,"PASI ≥90% Improvement, subjects (%)","Week 8, 50 mg QD, N=43",(18.6%)
same,"PASI 100% Improvement, subjects (%)","Week 8, 100 mg BID, N=42",(11.9%)
same,"PASI ≥75% Improvement, subjects (%)","Week 8, 100 mg BID, N=42",(47.6%)
same,"PASI ≥90% Improvement, subjects (%)","Week 8, 100 mg BID, N=42",(28.6%)
same,"PASI 100% Improvement, subjects (%)","Week 8, 100 mg QD, N=43",(4.7%)
same,"PASI ≥75% Improvement, subjects (%)","Week 8, 100 mg QD, N=43",(44.2%)
same,"PASI ≥90% Improvement, subjects (%)","Week 8, 100 mg QD, N=43",(20.9%)
same,"PASI 100% Improvement, subjects (%)","Week 12, 25 mg BID, N=41",(4.9%)
same,"PASI ≥75% Improvement, subjects (%)","Week 12, 25 mg BID, N=41",(51.2%)
same,"PASI ≥90% Improvement, subjects (%)","Week 12, 25 mg BID, N=41",(19.5%)
same,"PASI 100% Improvement, subjects (%)","Week 12, 25 mg QD, N=43",(4.7%)
same,"PASI ≥75% Improvement, subjects (%)","Week 12, 25 mg QD, N=43",(34.9%)
same,"PASI ≥90% Improvement, subjects (%)","Week 12, 25 mg QD, N=43",(18.6%)
same,"PASI 100% Improvement, subjects (%)","Week 12, 50 mg QD, N=43",(4.7%)
same,"PASI ≥75% Improvement, subjects (%)","Week 12, 50 mg QD, N=43",(51.2%)
same,"PASI ≥90% Improvement, subjects (%)","Week 12, 50 mg QD, N=43",(34.9%)
same,"PASI 100% Improvement, subjects (%)","Week 12, 100 mg BID, N=42",(33.3%)
same,"PASI ≥75% Improvement, subjects (%)","Week 12, 100 mg BID, N=42",(73.8%)
same,"PASI ≥90% Improvement, subjects (%)","Week 12, 100 mg BID, N=42",(52.4%)
same,"PASI 100% Improvement, subjects (%)","Week 12, 100 mg QD, N=43",(14.0%)
same,"PASI ≥75% Improvement, subjects (%)","Week 12, 100 mg QD, N=43",(62.8%)
same,"PASI ≥90% Improvement, subjects (%)","Week 12, 100 mg QD, N=43",(39.5%)
same,"PASI 100% Improvement, subjects (%)","Week 16, 25 mg BID, N=41",(9.8%)
same,"PASI ≥75% Improvement, subjects (%)","Week 16, 25 mg BID, N=41",(51.2%)
same,"PASI ≥90% Improvement, subjects (%)","Week 16, 25 mg BID, N=41",(26.8%)
same,"PASI 100% Improvement, subjects (%)","Week 16, 25 mg QD, N=43",(11.6%)
same,"PASI ≥75% Improvement, subjects (%)","Week 16, 25 mg QD, N=43",(37.2%)
same,"PASI ≥90% Improvement, subjects (%)","Week 16, 25 mg QD, N=43",(25.6%)
same,"PASI 100% Improvement, subjects (%)","Week 16, 50 mg QD, N=43",(25.6%)
same,"PASI ≥75% Improvement, subjects (%)","Week 16, 50 mg QD, N=43",(58.1%)
same,"PASI ≥90% Improvement, subjects (%)","Week 16, 50 mg QD, N=43",(51.2%)
same,"PASI 100% Improvement, subjects (%)","Week 16, 100 mg BID, N=42",(40.5%)
same,"PASI ≥75% Improvement, subjects (%)","Week 16, 100 mg BID, N=42",(78.6%)
same,"PASI ≥90% Improvement, subjects (%)","Week 16, 100 mg BID, N=42",(59.5%)
same,"PASI 100% Improvement, subjects (%)","Week 16, 100 mg QD, N=43",(23.3%)
same,"PASI ≥75% Improvement, subjects (%)","Week 16, 100 mg QD, N=43",(65.1%)
same,"PASI ≥90% Improvement, subjects (%)","Week 16, 100 mg QD, N=43",(46.5%)
same,"PASI 100% Improvement, subjects (%)","Week 20, 25 mg BID, N=41",(19.5%)
same,"PASI ≥75% Improvement, subjects (%)","Week 20, 25 mg BID, N=41",(56.1%)
same,"PASI ≥90% Improvement, subjects (%)","Week 20, 25 mg BID, N=41",(34.1%)
same,"PASI 100% Improvement, subjects (%)","Week 20, 25 mg QD, N=43",(14.0%)
same,"PASI ≥75% Improvement, subjects (%)","Week 20, 25 mg QD, N=43",(48.8%)
same,"PASI ≥90% Improvement, subjects (%)","Week 20, 25 mg QD, N=43",(30.2%)
same,"PASI 100% Improvement, subjects (%)","Week 20, 50 mg QD, N=43",(18.6%)
same,"PASI ≥75% Improvement, subjects (%)","Week 20, 50 mg QD, N=43",(62.8%)
same,"PASI ≥90% Improvement, subjects (%)","Week 20, 50 mg QD, N=43",(48.8%)
same,"PASI 100% Improvement, subjects (%)","Week 20, 100 mg BID, N=42",(40.5%)
same,"PASI ≥75% Improvement, subjects (%)","Week 20, 100 mg BID, N=42",(81.0%)

# Source: patent publication US20260232767A1, “INTERLEUKIN-23 RECEPTOR ANTAGONIST PEPTIDES FOR USE IN THE TREATMENT OF PSORIASIS” (Janssen Pharmaceutica NV, priority 2023, published 2026)
